Results: patent US9603889B2, “IAP antagonists” (BRISTOL-MYERS SQUIBB COMPANY, priority 2012, dated 2017)
Where a name gives a salt, the structure may show the parent alone.

Target: XIAP BIR3 (N-His-Tb-BIR3(241-356, XIAP)) (Homo sapiens (Human), UniProt P98170)
Format: binding
Settings: 130 nM N-His-Tb-BIR3(241-356, XIAP), 1.4 nM fluoresceinated modified SMAC peptide, 60 minutes room temperature; read-out: XIAP BIR3 FPA IC50

XIAP BIR3 (N-His-Tb-BIR3(241-356, XIAP)), sequence (P98170 241-356): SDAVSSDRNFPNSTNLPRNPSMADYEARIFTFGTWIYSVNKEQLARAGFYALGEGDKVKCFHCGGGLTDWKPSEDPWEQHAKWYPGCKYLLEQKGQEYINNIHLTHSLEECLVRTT

| Compound | IC50 |
| --- | --- |
| CN[C@@H](C)C(=O)N[C@H](C(=O)N1C[C@@H](NC(=O)c2ccc(CN(C(=O)[C@@H]3Cc4ccccc4CN3C(=O)[C@@H](NC(=O)[C@H](C)NC)C(C)(C)C)[C@H](C)c3ccc4ccccc4c3)cc2)C[C@H]1C(=O)N[C@@H]1CCCc2ccccc21)C(C)(C)C [Example 15, (S)-2-((S)-3,3-Dimethyl-2-((S)-2-(methylamino)propanamido)butanoyl)-N-(4-(((3S,5S)-1-((S)-3,3-dimethyl-2-((S)-2-(methylamino)propanamido)butanoyl)-5-(((R)-1,2,3,4-tetra-hydronaphthalen-1-yl)carbamoyl)pyrrolidin-3-yl)carbamoyl)benzyl)-N-((R)-1-(naphthalen-2-yl)ethyl)-1,2,3,4-tetrahydro-isoquinoline-3-carboxamide] | 0.09 µM |
| CN[C@@H](C)C(=O)N[C@H](C(=O)N1CCc2ccccc2[C@H]1C(=O)N(CCc1ccccc1)Cc1ccc(C(=O)NC2C[C@@H](C(=O)NC3CCCc4ccccc43)N(C(=O)[C@@H](NC(=O)[C@H](C)NC)C(C)(C)C)C2)cc1)C(C)(C)C (stereo partly shown) [Example 16] | 0.07 µM |
| CN[C@@H](C)C(=O)N[C@H](C(=O)N1Cc2ccccc2CC1C(=O)N(CC1(C(=O)NC2C[C@@H](C(=O)NC3CCCc4ccccc43)N(C(=O)[C@@H](NC(=O)[C@H](C)NC)C(C)(C)C)C2)CC1)[C@@H](COC)c1ccccc1)C(C)(C)C (stereo partly drawn) [Example 38, (S)-2-((S)-3,3-Dimethyl-2-((S)-2-(methylamino)propanamido)butanoyl)-N-((1-(((3S,5S)-1-((S)-3,3-dimethyl-2-((S)-2-(methylamino)propanamido)butanoyl)-5-(((R)-1,2,3,4-tetrahydronaphthalen-1-yl)carbamoyl)pyrrolidin-3-yl)carbamoyl)cyclopropyl)methyl)-N-((S)-2-methoxy-1-phenylethyl)-1,2,3,4-tetrahydroisoquinoline-3-carboxamide, 2 TFA] | 0.06 µM |
| CN[C@@H](C)C(=O)N[C@H](C(=O)N1C[C@@H](NC(=O)n2ccc3cc(CN(C(=O)[C@@H]4Cc5ccccc5CN4C(=O)[C@@H](NC(=O)[C@H](C)NC)C(C)(C)C)C(COC)c4ccccc4)ccc32)C[C@H]1C(=O)N[C@@H]1CCCc2ccccc21)C(C)(C)C (stereo in doubt) [Example 9, (S)-2-((S)-3,3-Dimethyl-2-((S)-2-(methylamino)propanamido)butanoyl)-N-((1-(((3S,5S)-1-((S)-3,3-dimethyl-2-((S)-2-(methylamino)propanamido)butanoyl)-5-(((R)-1,2,3,4-tetrahydronaphthalen-1-yl)carbamoyl)pyrrolidin-3-yl)carbamoyl)-1H-indol-5-yl)methyl)-N-((S)-2-methoxy-1-phenylethyl)-1,2,3,4-tetrahydroisoquinoline-3-carboxamide] | 0.13 µM |
| CN[C@@H](C)C(=O)N[C@H](C(=O)N1Cc2ccccc2C[C@H]1CN(Cc1cccc(C)c1C)C(=O)c1ccc(C(=O)Nc2ccc3c(c2)CN(C(=O)[C@@H](NC(=O)[C@H](C)NC)C(C)(C)C)[C@H](C(=O)N[C@@H]2CCCc4ccccc42)C3)cc1)C(C)(C)C [Example 35, N^1-(((S)-2-((S)-3,3-Dimethyl-2-((S)-2-(methylamino)propanamido)butanoyl)-1,2,3,4-tetra-hydroisoquinolin-3-yl)methyl)-N^4-((S)-2-((S)-3,3-dimethyl-2-((S)-2-(methylamino)propanamido)butanoyl)-3-(((R)-1,2,3,4-tetrahydro-naphthalen-1-yl)carbamoyl)-1,2,3,4-tetra-hydroisoquinolin-7-yl)-N^1-(2,3-dimethylbenzyl) terephthalamide] | 0.23 µM |
| CN[C@@H](C)C(=O)N[C@H](C(=O)N1C[C@@H](NC(=O)CCCN(C(=O)[C@@H]2Cc3ccccc3CN2C(=O)[C@@H](NC(=O)[C@H](C)NC)C(C)(C)C)[C@H](C)c2ccccc2F)C[C@H]1C(=O)N[C@@H]1CCCc2ccccc21)C(C)(C)C [Example 41, (S)-2-((S)-3,3-Dimethyl-2-((S)-2-(methylamino)propanamido)butanoyl)-N-(4-(((3S,5S)-1-((S)-3,3-dimethyl-2-((S)-2-(methylamino)propanamido)butanoyl)-5-(((R)-1,2,3,4-tetrahydronaphthalen-1-yl)carbamoyl)pyrrolidin-3-yl)amino)-4-oxobutyl)-N-((R)-1-(2-fluorophenyl)ethyl)-1,2,3,4-tetrahydroisoquinoline-3-carboxamide] | 0.06 µM |
| CN[C@@H](C)C(=O)N[C@H](C(=O)N1C[C@@H](NC(=O)c2ccc(CN(Cc3ccc4ccccc4c3)C(=O)[C@@H]3Cc4ccccc4CN3C(=O)[C@@H](NC(=O)[C@H](C)NC)C(C)(C)C)cc2)C[C@H]1C(=O)N[C@@H]1CCCc2ccccc21)C(C)(C)C [Example 14, (S)-2-((S)-3,3-Dimethyl-2-((S)-2-(methyl-amino)propanamido)butanoyl)-N-(4-(((3S,5S)-1-((S)-3,3-dimethyl-2-((S)-2-(methylamino)propanamido)butanoyl)-5-(((R)-1,2,3,4-tetra-hydronaphthalen-1-yl)carbamoyl)pyrrolidin-3-yl)carbamoyl)benzyl)-N-(naphthalen-2-ylmethyl)-1,2,3,4-tetrahydro-isoquinoline-3-carboxamide] | 0.04 µM |
| CN[C@@H](C)C(=O)N[C@H](C(=O)N1C[C@@H](NC(=O)c2ccc(CN(Cc3ccccc3)C(=O)[C@@H]3Cc4ccccc4CN3C(=O)[C@@H](NC(=O)[C@H](C)NC)C(C)(C)C)cc2)C[C@H]1C(=O)N[C@@H]1CCCc2ccccc21)C(C)(C)C [Example 13, (S)-N-Benzyl-2-((S)-3,3-dimethyl-2-((S)-2-(methylamino)propanamido)butanoyl)-N-(4-(((3S,5S)-1-((S)-3,3-dimethyl-2-((S)-2-(methylamino)propanamido)butanoyl)-5-(((R)-1,2,3,4-tetrahydro-naphthalen-1-yl)carbamoyl)pyrrolidin-3-yl)carbamoyl)benzyl)-1,2,3,4-tetra-hydroisoquinoline-3-carboxamide] | 0.04 µM |
| CN[C@@H](C)C(=O)N[C@H](C(=O)N1CC(NC(=O)c2ccc(CN(C(=O)[C@@H]3Cc4ccccc4CN3C(=O)[C@@H](NC(=O)[C@H](C)NC)C(C)(C)C)C(C)c3ccccc3Cl)cc2)C[C@H]1C(=O)NC1CCCc2ccccc21)C(C)(C)C (stereo partly drawn) [Example 26, (3S)-N-(1-(2-Chlorophenyl)ethyl)-2-((S)-3,3-dimethyl-2-((S)-2-(methylamino)propanamido)butanoyl)-N-(4-(((3S,5S)-1-((S)-3,3-dimethyl-2-((S)-2-(methylamino)propanamido)butanoyl)-5-(((R)-1,2,3,4-tetrahydro-naphthalen-1-yl)carbamoyl)pyrrolidin-3-yl)carbamoyl)benzyl)-1,2,3,4-tetra-hydroisoquinoline-3-carboxamide] | 0.19 µM |
| CN[C@@H](C)C(=O)N[C@H](C(=O)N1C[C@@H](NC(=O)C2(CN(C(=O)[C@@H]3Cc4ccccc4CN3C(=O)[C@@H](NC(=O)[C@H](C)NC)C(C)(C)C)[C@H](C)c3cccc(F)c3F)CC2)C[C@H]1C(=O)N[C@@H]1CCCc2ccccc21)C(C)(C)C [Example 43, (S)-N-((R)-1-(2,3-Difluorophenyl)ethyl)-2-((S)-3,3-dimethyl-2-((S)-2-(methylamino)propanamido)butanoyl)-N-((1-(((3S,5S)-1-((S)-3,3-dimethyl-2-((S)-2-(methylamino)propanamido)butanoyl)-5-(((R)-1,2,3,4-tetrahydronaphthalen-1-yl)carbamoyl)pyrrolidin-3-yl)carbamoyl)cyclopropyl)methyl)-1,2,3,4-tetrahydroisoquinoline-3-carboxamide] | 0.18 µM |
| CN[C@@H](C)C(=O)N[C@H](C(=O)N1Cc2ccccc2C[C@H]1CN(CCc1cccc2ccccc12)C(=O)c1ccc(C(=O)N[C@H]2C[C@@H](C(=O)N[C@@H]3CCCc4ccccc43)N(C(=O)[C@@H](NC(=O)[C@H](C)NC)C(C)(C)C)C2)cc1)C(C)(C)C [Example 33, N^1-(((S)-2-((S)-3,3-Dimethyl-2-((S)-2-(methylamino)propanamido)butanoyl)-1,2,3,4-tetrahydro-isoquinolin-3-yl)methyl)-N^4-((3S,5S)-1-((S)-3,3-dimethyl-2-((S)-2-(methylamino)propanamido)butanoyl)-5-(((R)-1,2,3,4-tetrahydro-naphthalen-1-yl)carbamoyl)pyrrolidin-3-yl)-N^1-(2-(naphthalen-1-yl)ethyl) terephthalamide] | 0.12 µM |
| CN[C@@H](C)C(=O)N[C@H](C(=O)N1Cc2ccccc2C[C@H]1CN(C(=O)c1ccc(C(=O)N[C@H]2C[C@@H](C(=O)N[C@@H]3CCCc4ccccc43)N(C(=O)[C@@H](NC(=O)[C@H](C)NC)C(C)(C)C)C2)cc1)[C@H](C)Cc1ccc2ccccc2c1)C(C)(C)C [Example 30, N^1-(((S)-2-((S)-3,3-Dimethyl-2-((S)-2-(methylamino)propanamido)butanoyl)-1,2,3,4-tetrahydro-isoquinolin-3-yl)methyl)-N^4-((3S,5S)-1-((S)-3,3-dimethyl-2-((S)-2-(methylamino)propanamido)butanoyl)-5-(((R)-1,2,3,4-tetrahydro-naphthalen-1-yl)carbamoyl)pyrrolidin-3-yl)-N^1-((R)-1-(naphthalen-2-yl)propan-2-yl) terephthalamide] | 0.27 µM |
| CN[C@@H](C)C(=O)N[C@H](C(=O)N1Cc2ccccc2C[C@H]1CN(Cc1cccc(C)c1C)C(=O)c1ccc(C(=O)N[C@H]2C[C@@H](C(=O)N[C@@H]3CCCc4ccccc43)N(C(=O)[C@@H](NC(=O)[C@H](C)NC)C(C)(C)C)C2)cc1)C(C)(C)C [Example 36, N^1-(((S)-2-((S)-3,3-Dimethyl-2-((S)-2-(methylamino)propanamido)butanoyl)-1,2,3,4-tetrahydro-isoquinolin-3-yl)methyl)-N^4-((3S,5S)-1-((S)-3,3-dimethyl-2-((S)-2-(methylamino)propanamido)butanoyl)-5-(((R)-1,2,3,4-tetrahydro-naphthalen-1-yl)carbamoyl)pyrrolidin-3-yl)-N^1-(2,3-dimethyl-benzyl) terephthalamide] | 0.09 µM |
